Experimental data published in patent US11261453B2, “Cells expressing apolipoprotein E and uses thereof” (Whitehead Institute for Biomedical Research, priority 2014, dated 2022).

Legend:
ApoE4-mediated toxicity [1] = assay: Compound test in ApoE4 hitox yeast strain (PDR1 and PDR3 deleted), optical density at A600 after 24 hours; assay type: cell-based, Saccharomyces cerevisiae; settings: A600, FIG. 10
Protocol: An ApoE4 hitox strain harboring 3-4 copies of the ApoE4 construct and with the drug-pump transcription factors PDR1 and PDR 3 deleted was used in this experiment. Cells were grown in raffinose; cells were diluted into galactose medium (to initiate expression of the expression construct). Test compounds were added to the cultures at various concentrations ranging from 0.25 μM to 32.0 μM; cells were grown for 24 hours after addition of the compounds, and the optical densities were then read at A600.

ApoE4-mediated toxicity [2] = settings: known from other experiments; cited from earlier work
[3] = tested on: Ste3 endocytosis to the vacuole; assay: Ste3-mKate2 endocytosis assay, fluorescence microscopy; assay type: cell-based, Saccharomyces cerevisiae; settings: 6-8 hours of induction with galactose, FIG. 13
Text: The effect of ApoE on endocytosis in yeast was further analyzed using a Ste3-mKate2 assay. Ste3 is a yeast G-protein coupled receptor (GPCR) that natively undergoes endocytosis from the cell surface to the vacuole. When clathrin-mediated endocytosis is disrupted, Ste3 trafficking can be disrupted as well.
The trafficking of Ste3 was observed using fluorescence microscopy by overexpressing a fluorescently-tagged (mKate2) version of Ste3 from a pAG423 galactose-inducible plasmid. The ApoE4 hitox strain described above was transformed with the pAG423-Ste3-mKate2 plasmid. In addition, yeast strains as described in Example 4 harboring expression constructs encoding human neurodegenerative disease-associated proteins alpha-synuclein (α-syn intox) or Aβ (Kar2ss-Aβ strain described in Treusch, S., et al., Science. (2011), 334:1241-5) were also transformed with the pAG423-Ste3-mKate2 plasmid. A strain transformed with a Gal-GFP plasmid served as a negative control. […] (FIG. 13).

Row | Molecule | ability to reduce ApoE4-mediated toxicity (ApoE4-mediated toxicity [1]; 0.25 μM to 32.0 μM) | concentrations at which ApoE4-mediated toxicity is reduced (ApoE4-mediated toxicity [1]) | toxicity of the compound itself to yeast (ApoE4-mediated toxicity [2]) | effect on Ste3 endocytosis [3]
1 | Oc1c(I)cc(Cl)c2cccnc12 [clioquinol] | able to reduce ApoE4-mediated toxicity | below 1.5 μM | becomes toxic to yeast at high concentrations | –
2 | Aβ: human amyloid beta expressed in yeast (Kar2ss-Aβ strain) | – | – | – | disruption of Ste3 endocytosis
